These results are taken from patent US12479847B2 (DANA-FARBER CANCER INSTITUTE, INC., priority 2019, dated 2025).

The structures appear in SMILES notation. Like-named read-outs stand apart in the source and are kept apart here.

What all share (test): KINOMEscan (ScanMAX) kinase profiling
Format in all cases: binding

For test [1], the target named is T1, panel of 468 kinases (Homo sapiens, UniProt Q16539).
T1 construct: purchased KINOMEscan (ScanMAX) service
Conditions: p38-alpha; 1 μM; read-out: % control.

Test [2] concerns the target T2, panel of 468 kinases (Homo sapiens, UniProt O60331).
T2 construct: purchased KINOMEscan (ScanMAX) service
Conditions: PIP5K1C; 1 μM; read-out: % control.

In test [3] the target is T3, panel of 468 kinases (Homo sapiens, UniProt Q9UQ88).
T3 construct: purchased KINOMEscan (ScanMAX) service
T3 sequence (Q9UQ88 1-783): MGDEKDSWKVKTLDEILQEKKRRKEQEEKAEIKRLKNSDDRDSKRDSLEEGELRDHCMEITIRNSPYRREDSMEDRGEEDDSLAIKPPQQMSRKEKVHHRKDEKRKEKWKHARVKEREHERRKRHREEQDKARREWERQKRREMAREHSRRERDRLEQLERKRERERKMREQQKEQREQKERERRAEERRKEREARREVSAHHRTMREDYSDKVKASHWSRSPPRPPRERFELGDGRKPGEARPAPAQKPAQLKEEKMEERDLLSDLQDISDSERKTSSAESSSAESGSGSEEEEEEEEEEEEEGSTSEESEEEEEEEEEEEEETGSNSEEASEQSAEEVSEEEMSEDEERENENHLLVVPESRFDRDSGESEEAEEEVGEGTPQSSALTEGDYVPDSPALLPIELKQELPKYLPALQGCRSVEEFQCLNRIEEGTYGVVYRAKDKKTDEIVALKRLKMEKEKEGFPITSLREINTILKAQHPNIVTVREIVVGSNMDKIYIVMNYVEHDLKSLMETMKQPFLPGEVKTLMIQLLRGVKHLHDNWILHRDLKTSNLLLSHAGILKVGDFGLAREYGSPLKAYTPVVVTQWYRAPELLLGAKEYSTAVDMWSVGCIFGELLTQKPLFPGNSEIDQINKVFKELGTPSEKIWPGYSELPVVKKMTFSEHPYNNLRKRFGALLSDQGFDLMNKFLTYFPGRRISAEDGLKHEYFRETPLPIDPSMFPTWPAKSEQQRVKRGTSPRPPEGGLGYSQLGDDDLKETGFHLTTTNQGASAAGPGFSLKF
Conditions: CDC2L2; 1 μM; read-out: % control.

The target of test [4] is T4, panel of 468 kinases (Homo sapiens, UniProt Q9Y5S2).
T4 construct: purchased KINOMEscan (ScanMAX) service
T4 sequence (Q9Y5S2 whole entry): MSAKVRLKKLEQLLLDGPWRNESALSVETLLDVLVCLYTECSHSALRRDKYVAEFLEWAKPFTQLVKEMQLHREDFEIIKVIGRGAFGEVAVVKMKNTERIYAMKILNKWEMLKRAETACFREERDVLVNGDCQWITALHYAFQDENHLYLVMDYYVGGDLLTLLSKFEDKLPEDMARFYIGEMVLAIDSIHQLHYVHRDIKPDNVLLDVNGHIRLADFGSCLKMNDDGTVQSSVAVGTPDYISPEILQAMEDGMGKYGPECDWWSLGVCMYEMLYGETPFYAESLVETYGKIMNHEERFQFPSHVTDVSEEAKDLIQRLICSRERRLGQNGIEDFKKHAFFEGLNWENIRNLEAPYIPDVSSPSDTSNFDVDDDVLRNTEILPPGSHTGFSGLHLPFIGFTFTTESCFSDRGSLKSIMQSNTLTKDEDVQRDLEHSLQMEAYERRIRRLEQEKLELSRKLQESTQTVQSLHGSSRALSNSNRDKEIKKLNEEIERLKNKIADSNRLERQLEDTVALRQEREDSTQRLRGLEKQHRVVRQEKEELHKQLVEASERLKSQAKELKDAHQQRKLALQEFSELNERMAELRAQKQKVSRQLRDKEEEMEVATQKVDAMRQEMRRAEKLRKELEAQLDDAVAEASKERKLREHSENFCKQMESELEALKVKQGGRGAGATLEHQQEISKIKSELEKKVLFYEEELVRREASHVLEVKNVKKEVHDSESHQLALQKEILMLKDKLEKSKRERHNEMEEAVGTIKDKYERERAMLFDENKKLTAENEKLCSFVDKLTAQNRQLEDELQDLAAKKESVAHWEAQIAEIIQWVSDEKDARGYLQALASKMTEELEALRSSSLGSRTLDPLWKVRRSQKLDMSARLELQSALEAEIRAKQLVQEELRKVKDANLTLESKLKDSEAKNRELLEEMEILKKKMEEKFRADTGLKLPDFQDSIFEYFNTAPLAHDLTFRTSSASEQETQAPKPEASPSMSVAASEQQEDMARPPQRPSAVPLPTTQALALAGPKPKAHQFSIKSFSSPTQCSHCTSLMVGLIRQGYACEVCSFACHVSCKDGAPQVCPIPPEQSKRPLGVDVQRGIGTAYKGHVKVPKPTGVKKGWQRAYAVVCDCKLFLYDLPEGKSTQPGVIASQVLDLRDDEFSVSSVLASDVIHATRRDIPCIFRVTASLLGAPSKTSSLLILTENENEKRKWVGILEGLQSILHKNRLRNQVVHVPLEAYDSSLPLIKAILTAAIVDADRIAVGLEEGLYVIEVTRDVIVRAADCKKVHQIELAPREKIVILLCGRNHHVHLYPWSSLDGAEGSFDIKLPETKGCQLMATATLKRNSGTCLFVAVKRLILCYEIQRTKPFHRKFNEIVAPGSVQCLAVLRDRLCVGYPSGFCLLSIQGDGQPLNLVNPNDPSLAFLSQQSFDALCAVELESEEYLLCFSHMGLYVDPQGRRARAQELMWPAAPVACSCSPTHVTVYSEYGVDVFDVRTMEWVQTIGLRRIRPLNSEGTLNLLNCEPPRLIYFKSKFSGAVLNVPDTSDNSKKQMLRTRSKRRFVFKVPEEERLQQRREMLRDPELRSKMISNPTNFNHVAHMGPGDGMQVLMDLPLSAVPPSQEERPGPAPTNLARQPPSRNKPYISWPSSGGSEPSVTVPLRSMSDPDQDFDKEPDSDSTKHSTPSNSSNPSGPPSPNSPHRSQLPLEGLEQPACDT
The conditions noted are these: MRCKB; 1 μM; read-out: % control.

The target in test [5] is T5, panel of 468 kinases (Homo sapiens, UniProt P00519).
T5 construct: purchased KINOMEscan (ScanMAX) service
T5 sequence (P00519 whole entry): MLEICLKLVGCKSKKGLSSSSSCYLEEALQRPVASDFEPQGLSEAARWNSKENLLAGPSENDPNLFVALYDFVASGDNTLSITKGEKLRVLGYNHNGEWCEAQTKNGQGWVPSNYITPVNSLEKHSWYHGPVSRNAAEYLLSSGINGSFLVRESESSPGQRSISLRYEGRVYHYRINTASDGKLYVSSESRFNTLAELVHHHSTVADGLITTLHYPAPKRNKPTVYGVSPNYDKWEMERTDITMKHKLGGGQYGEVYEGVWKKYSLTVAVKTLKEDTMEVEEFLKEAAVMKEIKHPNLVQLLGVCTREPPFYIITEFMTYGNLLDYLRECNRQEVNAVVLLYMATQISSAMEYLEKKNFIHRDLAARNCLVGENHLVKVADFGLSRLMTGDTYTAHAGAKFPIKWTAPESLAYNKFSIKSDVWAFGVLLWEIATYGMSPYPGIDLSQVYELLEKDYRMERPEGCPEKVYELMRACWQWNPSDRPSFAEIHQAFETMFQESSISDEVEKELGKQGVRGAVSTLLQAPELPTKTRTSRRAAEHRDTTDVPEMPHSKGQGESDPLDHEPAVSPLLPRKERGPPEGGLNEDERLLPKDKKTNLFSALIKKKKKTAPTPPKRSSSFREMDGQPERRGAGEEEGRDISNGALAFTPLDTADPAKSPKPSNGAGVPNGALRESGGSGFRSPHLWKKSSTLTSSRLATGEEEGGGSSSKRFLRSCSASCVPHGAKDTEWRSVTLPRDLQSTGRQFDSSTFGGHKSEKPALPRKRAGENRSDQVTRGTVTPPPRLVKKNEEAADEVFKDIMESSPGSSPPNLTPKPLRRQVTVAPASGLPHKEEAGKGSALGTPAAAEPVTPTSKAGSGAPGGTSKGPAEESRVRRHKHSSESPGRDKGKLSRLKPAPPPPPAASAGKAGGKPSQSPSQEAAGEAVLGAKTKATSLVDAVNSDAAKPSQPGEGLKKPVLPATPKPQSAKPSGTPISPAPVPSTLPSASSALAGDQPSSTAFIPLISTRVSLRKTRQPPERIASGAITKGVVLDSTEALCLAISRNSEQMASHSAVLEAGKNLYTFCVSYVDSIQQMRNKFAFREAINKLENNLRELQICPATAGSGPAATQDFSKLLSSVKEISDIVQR
Conditions: 1 μM, read-out: % control.

The target of test [6] is T6, panel of 468 kinases (Homo sapiens, UniProt P21709).
T6 construct: purchased KINOMEscan (ScanMAX) service
T6 sequence (P21709 26-976): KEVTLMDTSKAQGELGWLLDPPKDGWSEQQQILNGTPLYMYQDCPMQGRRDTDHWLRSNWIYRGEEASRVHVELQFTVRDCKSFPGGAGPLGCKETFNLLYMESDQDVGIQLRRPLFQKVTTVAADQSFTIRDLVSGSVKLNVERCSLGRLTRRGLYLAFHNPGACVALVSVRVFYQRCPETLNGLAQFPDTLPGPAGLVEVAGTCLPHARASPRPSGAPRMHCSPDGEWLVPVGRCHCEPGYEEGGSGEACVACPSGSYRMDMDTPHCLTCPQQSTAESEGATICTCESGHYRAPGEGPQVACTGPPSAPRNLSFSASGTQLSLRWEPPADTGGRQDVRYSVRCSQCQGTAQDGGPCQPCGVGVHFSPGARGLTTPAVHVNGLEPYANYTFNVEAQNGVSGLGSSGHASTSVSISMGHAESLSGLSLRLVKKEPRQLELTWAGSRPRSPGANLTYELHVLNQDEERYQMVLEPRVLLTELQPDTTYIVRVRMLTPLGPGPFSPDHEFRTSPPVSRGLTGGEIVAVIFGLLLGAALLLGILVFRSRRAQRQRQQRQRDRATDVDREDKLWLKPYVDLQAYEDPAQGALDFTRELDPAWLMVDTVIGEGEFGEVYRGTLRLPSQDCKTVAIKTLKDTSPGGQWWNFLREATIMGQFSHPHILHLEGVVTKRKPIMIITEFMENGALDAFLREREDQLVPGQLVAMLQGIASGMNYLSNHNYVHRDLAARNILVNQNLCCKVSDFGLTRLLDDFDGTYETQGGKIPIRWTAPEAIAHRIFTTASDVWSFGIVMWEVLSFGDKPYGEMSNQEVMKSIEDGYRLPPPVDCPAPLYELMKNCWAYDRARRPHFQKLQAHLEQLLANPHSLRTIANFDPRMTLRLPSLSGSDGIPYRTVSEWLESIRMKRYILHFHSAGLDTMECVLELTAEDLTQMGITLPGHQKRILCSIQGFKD
Conditions: EPHA1; 1 μM; read-out: % control.

T1 sequence (Q16539 whole entry): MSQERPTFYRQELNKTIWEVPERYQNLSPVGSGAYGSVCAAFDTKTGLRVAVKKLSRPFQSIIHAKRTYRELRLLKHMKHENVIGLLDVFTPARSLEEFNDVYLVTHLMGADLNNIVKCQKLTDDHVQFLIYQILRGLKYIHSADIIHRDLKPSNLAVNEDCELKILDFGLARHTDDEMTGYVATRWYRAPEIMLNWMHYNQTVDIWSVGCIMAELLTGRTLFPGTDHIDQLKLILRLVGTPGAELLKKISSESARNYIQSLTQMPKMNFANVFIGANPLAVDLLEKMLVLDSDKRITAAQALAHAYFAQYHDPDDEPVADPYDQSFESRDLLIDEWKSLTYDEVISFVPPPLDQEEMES
T2 sequence (O60331 whole entry): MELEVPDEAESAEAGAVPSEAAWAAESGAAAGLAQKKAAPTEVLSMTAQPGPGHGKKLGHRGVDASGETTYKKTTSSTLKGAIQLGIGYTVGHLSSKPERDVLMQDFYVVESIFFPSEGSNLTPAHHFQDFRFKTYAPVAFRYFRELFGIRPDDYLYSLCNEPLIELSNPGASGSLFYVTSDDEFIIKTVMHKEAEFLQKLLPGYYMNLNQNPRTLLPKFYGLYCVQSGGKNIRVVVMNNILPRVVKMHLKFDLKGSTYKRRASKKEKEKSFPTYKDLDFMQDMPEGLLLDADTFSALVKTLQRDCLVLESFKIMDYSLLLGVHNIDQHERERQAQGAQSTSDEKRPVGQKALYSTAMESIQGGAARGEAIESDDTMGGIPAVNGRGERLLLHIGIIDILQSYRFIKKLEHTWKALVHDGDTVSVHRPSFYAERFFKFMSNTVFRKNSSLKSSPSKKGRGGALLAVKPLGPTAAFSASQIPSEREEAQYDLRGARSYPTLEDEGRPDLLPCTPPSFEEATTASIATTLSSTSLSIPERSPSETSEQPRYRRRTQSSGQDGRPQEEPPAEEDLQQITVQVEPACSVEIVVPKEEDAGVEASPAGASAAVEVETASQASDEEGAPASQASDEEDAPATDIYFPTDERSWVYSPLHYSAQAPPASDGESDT

`CNc1nc(Nc2ccc(S(=O)(=O)N3CCC(N4CCOCC4)CC3)cc2OC)nc2[nH]cc(Cl)c12` [Compound 12, 5-chloro-N2-(2-methoxy-4-((4-morpholinopiperidin-1-yl)sulfonyl)phenyl)-N4-methyl-7H-pyrrolo[2,3-d]pyrimidine-2,4-diamine]: the remaining binding at 1 µM on panel of 468 kinases [1] was determined as 100%; at panel of 468 kinases [2], 57%; at panel of 468 kinases [3] it was 100%; on panel of 468 kinases [4] it was 100%; on panel of 468 kinases [5] (ABL1-nonphosphorylated), 80%; at panel of 468 kinases [5] (ABL1-phosphorylated), 72%. Also, the remaining binding at 1 µM at panel of 468 kinases [6] is 100%.

As for `CNc1nc(Nc2ccc(P3(=O)CCN(C4CCOCC4)CC3)cc2OC)nc2[nH]cc(Cl)c12` [Compound 77, 4-(4-((5-chloro-4-(methylamino)-7H-pyrrolo[2,3-d]pyrimidin-2-yl)amino)-3-methoxyphenyl)-1-(tetrahydro-2H-pyran-4-yl)-1,4-azaphosphinane 4-oxide], the remaining binding at 1 µM on panel of 468 kinases [1] stood at 100%; on panel of 468 kinases [2], 70%; at panel of 468 kinases [3] it was 100%; at panel of 468 kinases [4], 100%; on panel of 468 kinases [5] (ABL1-nonphosphorylated) it was 92%; at panel of 468 kinases [5] (ABL1-phosphorylated) it was 80%. The remaining binding at 1 µM on panel of 468 kinases [6] was found to be 100%.

On to `CNc1nc(Nc2ccc(C(=O)N3CCC(N4CCOCC4)CC3)c3c2OCO3)nc2[nH]cc(Cl)c12` [Compound 75, (7-((5-chloro-4-(methylamino)-7H-pyrrolo[2,3-d]pyrimidin-2-yl)amino)benzo[d][1,3]dioxol-4-yl)(4-morpholinopiperidin-1-yl)methanone], for which the remaining binding at 1 µM on panel of 468 kinases [1] turned out to be 100%; on panel of 468 kinases [2], 55%; at panel of 468 kinases [3], 100%; at panel of 468 kinases [4] it was 100%; on panel of 468 kinases [5] (ABL1-nonphosphorylated), 94%; at panel of 468 kinases [5] (ABL1-phosphorylated), 80%. On panel of 468 kinases [6], the remaining binding at 1 µM is 100%.
